Measurements published in ChEMBL document CHEMBL1123728, “Rational design of 4-[(methylsulfonyl)amino]benzamides as class III antiarrhythmic agents” (J Med Chem, 1987).
The source made the active and inactive calls.

Assays:
Canis familiaris [1] = species: Canis familiaris; assay: Concentration required for 20% increase in action potential duration of canine Purkinje fiber (intracellular electrophysiology) in vitro measured at 95% repolarization was reported. Range is between 0.01-0.03; assay type: functional, Canis lupus familiaris
Canis familiaris [2] = species: Canis familiaris; assay: Concentration required for 20% increase in the functional refractory period of canine ventricular muscle (extracellular electrophysiology) in vitro was reported. Range is between 0.05-3.7; parameters: species or system Canis lupus familiaris
Canis familiaris [3] = species: Canis familiaris; assay: Concentration required for 20% increase in the functional refractory period of canine ventricular muscle (extracellular electrophysiology) in vitro was reported. Range is between 5.6-800; parameters: species or system Canis lupus familiaris
Canis familiaris [4] = species: Canis familiaris; assay: Concentration required for 20% increase in action potential duration of canine Purkinje fiber (intracellular electrophysiology) in vitro measured at 95% repolarization was reported. NR means 10% increase in APD95 (C10APD95) was observed at 30 um(22; assay type: functional; conditions: Canis lupus familiaris
Canis familiaris [5] = assay: Efficacy in blocking sustained ventricular tachycardia (rate>250 bpm) elicited by programmed electrical stimulation in anesthetized dogs after iv administration of dose 9 mg/kg; no. of successful exp / total no. of exp = 4/4; assay type: functional, Canis lupus familiaris, Cardiac ventricle
[6] = pKa1 was determined; assay type: physicochemical; conditions: read-out: pKa1
[7] = pKa2 was determined; assay type: physicochemical; conditions: read-out: pKa2
Canis familiaris [8] = species: Canis familiaris; assay: Concentration required for 20% increase in the functional refractory period of canine ventricular muscle (extracellular electrophysiology) in vitro was reported. Range is between 9-35; parameters: species or system Canis lupus familiaris
Canis familiaris [9] = species: Canis familiaris; assay: Concentration required for 20% increase in action potential duration of canine Purkinje fiber (intracellular electrophysiology) in vitro measured at 95% repolarization was reported. RAnge is between 2.0-11.4; assay type: functional, Canis lupus familiaris
Canis familiaris [10] = assay: Efficacy in blocking sustained ventricular tachycardia (rate>250 bpm) elicited by programmed electrical stimulation in conscious dogs. Administered orally at a dose of 2.5 mg/kg after iv administration; no. of successful exp / total no. of exp = 5 /6; assay type: functional, Canis lupus familiaris, Cardiac ventricle; conditions: route oral
[11] = Bioavailability after peroral administration (3 mg/kg) in dog was determined; Range 41-98%; assay type: ADME, organism-based, Canis lupus familiaris; conditions: in vivo, po, read-out: Bioavailabiility
Canis familiaris [12] = assay: Efficacy in blocking sustained ventricular tachycardia (rate>250 bpm) elicited by programmed electrical stimulation in 4 anesthetized dogs after iv administration of dose 1 mg/kg; no. of successful exp / total no. of exp = 4/4; assay type: functional, Canis lupus familiaris, Cardiac ventricle
Mus musculus = assay: Acute toxicity after intraperitoneal administration in mouse was determined; range 250-300 mg/kg; assay type: functional; conditions: ip
[13] = Half life period was determined; conditions: dog
Canis familiaris [14] = species: Canis familiaris; assay: Concentration required for 20% increase in the functional refractory period of canine ventricular muscle (extracellular electrophysiology) in vitro was reported. Range is between 0.8-11; parameters: species or system Canis lupus familiaris
Canis familiaris [15] = species: Canis familiaris; assay: Concentration required for 20% increase in action potential duration of canine Purkinje fiber (intracellular electrophysiology) in vitro measured at 95% repolarization was reported. Range is between 0.08-5; assay type: functional, Canis lupus familiaris
Canis familiaris [16] = species: Canis familiaris; assay: Concentration required for 20% increase in the functional refractory period of canine ventricular muscle (extracellular electrophysiology) in vitro was reported. Range is between 9-4000; parameters: species or system Canis lupus familiaris
Canis familiaris [17] = species: Canis familiaris; assay: Concentration required for 20% increase in action potential duration of canine Purkinje fiber (intracellular electrophysiology) in vitro measured at 95% repolarization was reported. Range is between 9-63; assay type: functional, Canis lupus familiaris
Canis familiaris [18] = assay: Efficacy in blocking sustained ventricular tachycardia (rate>250 bpm) elicited by programmed electrical stimulation in conscious dogs after iv administration of dose 3 mg/kg; no. of successful exp / total no. of exp = 4/4; assay type: functional, Canis lupus familiaris, Cardiac ventricle
Canis familiaris [19] = assay: Efficacy in blocking sustained ventricular tachycardia (rate>250 bpm) elicited by programmed electrical stimulation in anesthetized dogs after iv administration of dose 1 mg/kg; no. of successful exp / total no. of exp = 2/7; assay type: functional, Canis lupus familiaris, Cardiac ventricle
Canis familiaris [20] = species: Canis familiaris; assay: Concentration required for 20% increase in the functional refractory period of canine ventricular muscle (extracellular electrophysiology) in vitro was reported; NR means not reached; conditions: Canis lupus familiaris
Canis familiaris [21] = species: Canis familiaris; assay: Concentration required for 20% increase in action potential duration of canine Purkinje fiber (intracellular electrophysiology) in vitro measured at 95% repolarization was reported; NR means not reached; assay type: functional; conditions: Canis lupus familiaris
Canis familiaris [22] = species: Canis familiaris; assay: Concentration required for 20% increase in the functional refractory period of canine ventricular muscle (extracellular electrophysiology) in vitro was reported. Range is between 1.6-25; parameters: species or system Canis lupus familiaris
Canis familiaris [23] = species: Canis familiaris; assay: Concentration required for 20% increase in action potential duration of canine Purkinje fiber (intracellular electrophysiology) in vitro measured at 95% repolarization was reported. Range is between 1.0-34; assay type: functional, Canis lupus familiaris
Canis familiaris [24] = assay: Efficacy in blocking sustained ventricular tachycardia (rate>250 bpm) elicited by programmed electrical stimulation in anesthetized dogs after iv administration of dose 1.4 mg/kg; no. of successful exp / total no. of exp = 3/5; assay type: functional, Canis lupus familiaris, Cardiac ventricle
Canis familiaris [25] = species: Canis familiaris; assay: Concentration required for 20% increase in the functional refractory period of canine ventricular muscle (extracellular electrophysiology) in vitro was reported. Range is between 1.2-150; parameters: species or system Canis lupus familiaris
Canis familiaris [26] = species: Canis familiaris; assay: Concentration required for 20% increase in action potential duration of canine Purkinje fiber (intracellular electrophysiology) in vitro measured at 95% repolarization was reported. Range is between 0.2-0.5; assay type: functional, Canis lupus familiaris
Canis familiaris [27] = species: Canis familiaris; assay: Concentration required for 20% increase in action potential duration of canine Purkinje fiber (intracellular electrophysiology) in vitro measured at 95% repolarization was reported. Range is between 1.8-2.0; assay type: functional, Canis lupus familiaris
Canis familiaris [28] = species: Canis familiaris; assay: Concentration required for 20% increase in the functional refractory period of canine ventricular muscle (extracellular electrophysiology) in vitro was reported; parameters: species or system Canis lupus familiaris
Canis familiaris [29] = assay: Efficacy in blocking sustained ventricular tachycardia (rate>250 bpm) elicited by programmed electrical stimulation in conscious dogs after iv administration of 0.8 mg/kg; no. of successful exp / total no. of exp = 5/5; assay type: functional, Canis lupus familiaris, Cardiac ventricle
Canis familiaris [30] = assay: Efficacy in blocking sustained ventricular tachycardia (rate>250 bpm) elicited by programmed electrical stimulation in conscious dogs after iv administration of dose 0.5 mg/kg; no. of successful exp / total no. of exp = 4/4; assay type: functional, Canis lupus familiaris, Cardiac ventricle
Canis familiaris [31] = assay: Efficacy in blocking sustained ventricular tachycardia (rate>250 bpm) elicited by programmed electrical stimulation in anesthetized dogs after iv administration of 0.5 mg/kg; no. of successful exp / total no. of exp = 4/4; assay type: functional, Canis lupus familiaris, Cardiac ventricle
Canis familiaris [32] = assay: Efficacy in blocking sustained ventricular tachycardia (rate>250 bpm) elicited by programmed electrical stimulation in anesthetized dogs after iv administration of dose 1.0 mg/kg; no. of successful exp / total no. of exp = 3/4; assay type: functional, Canis lupus familiaris, Cardiac ventricle
Canis familiaris [33] = species: Canis familiaris; assay: Concentration required for 20% increase in action potential duration of canine Purkinje fiber (intracellular electrophysiology) in vitro measured at 95% repolarization was reported. Range is between 0.2-5; assay type: functional, Canis lupus familiaris
Canis familiaris [34] = species: Canis familiaris; assay: Concentration required for 20% increase in the functional refractory period of canine ventricular muscle (extracellular electrophysiology) in vitro was reported, range is 0.3-1.1; parameters: species or system Canis lupus familiaris
Canis familiaris [35] = assay: Efficacy in blocking sustained ventricular tachycardia (rate>250 bpm) elicited by programmed electrical stimulation in anesthetized dogs after iv administration of dose 0.8 mg/kg; no. of successful exp / total no. of exp = 5/9; assay type: functional, Canis lupus familiaris, Cardiac ventricle
Canis familiaris [36] = species: Canis familiaris; assay: Concentration required for 20% increase in action potential duration of canine Purkinje fiber (intracellular electrophysiology) in vitro measured at 95% repolarization was reported;NR means not reached; assay type: functional; conditions: Canis lupus familiaris
Canis familiaris [37] = species: Canis familiaris; assay: Concentration required for 20% increase in the functional refractory period of canine ventricular muscle (extracellular electrophysiology) in vitro was reported;NR means not reached; conditions: Canis lupus familiaris
Canis familiaris [38] = species: Canis familiaris; assay: Concentration required for 20% increase in action potential duration of canine Purkinje fiber (intracellular electrophysiology) in vitro measured at 95% repolarization was reported. Range is between 0.03-2; assay type: functional, Canis lupus familiaris
Canis familiaris [39] = species: Canis familiaris; assay: Concentration required for 20% increase in the functional refractory period of canine ventricular muscle (extracellular electrophysiology) in vitro was reported;NR=at 10 uM the FRP was increased 13%; conditions: Canis lupus familiaris
Canis familiaris [40] = assay: Efficacy in blocking sustained ventricular tachycardia (rate>250 bpm) elicited by programmed electrical stimulation in conscious dogs after iv administration of dose 1 mg/kg; no. of successful exp / total no. of exp = 5/6; assay type: functional, Canis lupus familiaris, Cardiac ventricle
Canis familiaris [41] = assay: Efficacy in blocking sustained ventricular tachycardia (rate>250 bpm) elicited by programmed electrical stimulation in anesthetized dogs after iv administration of dose 0.3 mg/kg; no. of successful exp / total no. of exp = 7/10; assay type: functional, Canis lupus familiaris, Cardiac ventricle
Canis familiaris [42] = species: Canis familiaris; assay: Decrease in Vmax in isolated canine Purkinje fibers at 10 uM; assay type: functional, Canis lupus familiaris, Purkinje fiber

CCCCCCCN(CC)CCNC(=O)c1ccc(NS(C)(=O)=O)cc1
C20 APD95 (Canis familiaris [1]): 0.02 µM | C20 FRP (Canis familiaris [2]): 0.5 µM

CCN(CC)CCNC(=O)c1ccc(NC(C)=O)cc1 [ACECAINIDE]
C20 FRP (Canis familiaris [3]): 60 µM | C20 APD95 (Canis familiaris [4]): Partially active | Efficacy (Canis familiaris [5]): 4

CCN(CC)CCNC(=O)c1ccc(NS(C)(=O)=O)cc1.Cl [SEMATILIDE HYDROCHLORIDE]
pKa [6]: 7.6 | pKa [7]: 9.51 | C20 FRP (Canis familiaris [8]): 17 µM | C20 APD95 (Canis familiaris [9]): 3.5 µM | Efficacy (Canis familiaris [10]): 5 | bioavailability [11]: 41% | Efficacy (Canis familiaris [12]): 4 | LD50 (Mus musculus): 250 mg/kg | half-life [13]: 2.7 h

CCCCCCCNCCNC(=O)c1ccc(NS(C)(=O)=O)cc1.Cl
C20 FRP (Canis familiaris [14]): 4 µM | C20 APD95 (Canis familiaris [15]): 0.2 µM

CC(C)NCC(O)c1ccc(NS(C)(=O)=O)cc1 (racemic) [SOTALOL]
C20 FRP (Canis familiaris [16]): 52 µM | C20 APD95 (Canis familiaris [17]): 22 µM | Efficacy (Canis familiaris [18]): 4 | Efficacy (Canis familiaris [19]): 2

CCN(CC)CCNC(=O)c1ccc(NS(=O)(=O)CC)cc1
C20 FRP (Canis familiaris [20]): Not reached | C20 APD95 (Canis familiaris [21]): Not reached

CCN(CC)CCCNC(=O)c1ccc(NS(C)(=O)=O)cc1
C20 FRP (Canis familiaris [22]): 4 µM | C20 APD95 (Canis familiaris [23]): 2 µM | Efficacy (Canis familiaris [24]): 3

CCN(CC)C1CCC(NC(=O)c2ccc(NS(C)(=O)=O)cc2)CC1.Cl (configuration not stated)
C20 FRP (Canis familiaris [25]): 3 µM | C20 APD95 (Canis familiaris [26]): 0.4 µM | C20 APD95 (Canis familiaris [27]): 1.9 µM | C20 FRP (Canis familiaris [28]): 40 µM | Efficacy (Canis familiaris [29]): 5 | Efficacy (Canis familiaris [30]): 4 | Efficacy (Canis familiaris [31]): 4 | Efficacy (Canis familiaris [32]): 3

C=CCN(CCN(CC)CC)C(=O)c1ccc(NS(C)(=O)=O)cc1
C20 APD95 (Canis familiaris [33]): 0.5 µM | C20 FRP (Canis familiaris [34]): 0.5 µM | Efficacy (Canis familiaris [35]): 5

CCN(CC)CCNC(=O)c1ccc(N(C)S(C)(=O)=O)cc1
C20 FRP (Canis familiaris [20]): Not reached | C20 APD95 (Canis familiaris [36]): Not reached

CCNCCNC(=O)c1ccc(NS(C)(=O)=O)cc1
C20 FRP (Canis familiaris [37]): Not reached | C20 APD95 (Canis familiaris [36]): Not reached

CCCCCCC[N+](CC)(CC)CCCCc1ccc(Cl)cc1 [CLOFILIUM]
C20 APD95 (Canis familiaris [38]): 0.2 µM | C20 FRP (Canis familiaris [39]): Partially active | Efficacy (Canis familiaris [40]): 5 | Efficacy (Canis familiaris [41]): 7 | delta Vmax (Canis familiaris [42]): -18%

CCN(CC)CCNC(=O)c1ccc(NS(=O)(=O)C(F)(F)F)cc1
C20 FRP (Canis familiaris [37]): Not reached | C20 APD95 (Canis familiaris [36]): Not reached
